Assay results taken from the CombiSolv-Exp solvation set (Vermeire and Green 2021).
Each block holds one compound with its values, some of them ahead of it.

Experiment: solvent given as SMILES
[1] = in CCCCCCCCC=CCCCCCCCC(=O)OCC(COC(=O)CCCCCCCC=CCCCCCCCC)OC(=O)CCCCCCCC=CCCCCCCCC

Compound: CCCc1ccccc1
solvation free energy, 298 K (in C1CCOC1): -6.63 kcal/mol
solvation free energy, 298 K (in CC#N): -5.61 kcal/mol
solvation free energy, 298 K (in CC(C)CC(C)(C)C): -5.89 kcal/mol
solvation free energy, 298 K (in CC(C)O): -5.41 kcal/mol
solvation free energy, 298 K (in CCCCCC): -5.55 kcal/mol
solvation free energy, 298 K (in CCCCCCC): -5.92 kcal/mol
solvation free energy, 298 K (in CCCCCCCCCC): -5.23 kcal/mol
solvation free energy, 298 K (in CCCCCCCCCCCCCCCC): -5.76 kcal/mol
solvation free energy, 298 K (in CCCCCCCCO): -5.58 kcal/mol
solvation free energy, 298 K (in CO): -5.31 kcal/mol
solvation free energy, 298 K (in NC=O): -3.49 kcal/mol
solvation free energy, 298 K (in O): -0.56 kcal/mol
solvation free energy, 298 K (in OCCO): -3.65 kcal/mol
solvation free energy, 298 K (in OCCOCCO): -4.55 kcal/mol
solvation free energy, 298 K (in OCCOCCOCCO): -4.69 kcal/mol

solvation free energy, 298 K (in CCO): -3.98 kcal/mol
solvation free energy, 298 K (in O): -0.46 kcal/mol
Compound: CC(C)I

solvation free energy, 298 K (in O): -11.1 kcal/mol
Compound: CCCCP(=O)(CCCC)CCCC

Compound: CCc1ccc(O)cc1
solvation free energy, 298 K (in C=CCCCCCCC=C): -7.11 kcal/mol
solvation free energy, 298 K (in CCCCCC): -6.53 kcal/mol
solvation free energy, 298 K (in CCCCCCC): -6.47 kcal/mol
solvation free energy, 298 K (in CCCCCCCC): -6.44 kcal/mol
solvation free energy, 298 K (in Cc1ccc(C)cc1): -7.85 kcal/mol
solvation free energy, 298 K (in Cc1cccc(C)c1): -7.83 kcal/mol
solvation free energy, 298 K (in Cc1ccccc1C): -7.87 kcal/mol
solvation free energy, 298 K (in O): -6.14 kcal/mol

Compound: CNC(=O)Oc1cccc2ccccc12
solvation free energy, 298 K [1]: -12.6 kcal/mol

solvation free energy, 298 K (in CCCCCCCC): -4.89 kcal/mol
solvation free energy, 298 K (in CCCCCCCCCC): -4.82 kcal/mol
Compound: CCCC(C)CO (stereo unspecified)

Compound: ClC(Cl)C(Cl)Cl
solvation free energy, 298 K (in CC(C)=O): -6.28 kcal/mol
solvation free energy, 298 K (in CCCCCCCCCCCCCCCC): -5.21 kcal/mol
solvation free energy, 298 K (in CCCCCCCCO): -5.84 kcal/mol
solvation free energy, 298 K (in ClC(Cl)(Cl)Cl): -5.93 kcal/mol
solvation free energy, 298 K (in ClCCCl): -6.37 kcal/mol
solvation free energy, 298 K (in O): -2.45 kcal/mol
solvation free energy, 298 K (in [2H]O[2H]): -2.59 kcal/mol

Compound: BrC1CCCCC1
solvation free energy, 298 K (in O): -0.57 kcal/mol

solvation free energy, 298 K (in O): -11.5 kcal/mol
Compound: Cc1ccccc1C(=O)N(O)c1ccccc1

Compound: c1nc[nH]n1
solvation free energy, 298 K (in COC(C)=O): -10.3 kcal/mol
solvation free energy, 298 K (in O): -11.6 kcal/mol

Compound: Ic1ccccc1
solvation free energy, 298 K (in C1CCOC1): -7.38 kcal/mol
solvation free energy, 298 K (in C1COCCO1): -7.22 kcal/mol
solvation free energy, 298 K (in CCCCCCC): -6.27 kcal/mol
solvation free energy, 298 K (in CCCCCCCCCCCCCCCC): -6.11 kcal/mol
solvation free energy, 298 K (in CN(C)C=O): -7.09 kcal/mol
solvation free energy, 298 K (in ClC(Cl)(Cl)Cl): -6.81 kcal/mol
solvation free energy, 298 K (in N#Cc1ccccc1): -6.98 kcal/mol
solvation free energy, 298 K (in O): -1.75 kcal/mol
solvation free energy, 298 K (in OCCO): -5.28 kcal/mol

Compound: CCCCCCBr
solvation free energy, 298 K (in O): 0.18 kcal/mol

Compound: Clc1ccc(-c2ccccc2Cl)cc1
solvation free energy, 298 K (in CCCCCCCCO): -10 kcal/mol
solvation free energy, 298 K (in O): -2.58 kcal/mol

solvation free energy, 298 K (in O): -2.67 kcal/mol
Compound: CCCCCCC=O

solvation free energy, 298 K (in O): 0.2 kcal/mol
Compound: CC1=CCC(C(C)C)C=C1 (stereo unspecified)

Compound: CCCCCCO[N+](=O)[O-]
solvation free energy, 298 K (in O): -1.66 kcal/mol

solvation free energy, 298 K (in O): -8.98 kcal/mol
Compound: O=C(O)CCCCCCCc1ccccc1

solvation free energy, 298 K (in CN(C)C=O): -9.19 kcal/mol
solvation free energy, 298 K (in O): -3.75 kcal/mol
Compound: COC(=O)c1ccc(Cl)c(Cl)c1

Compound: c1ccc2c(c1)CCCC2
solvation free energy, 298 K (in CCC(C)=O): -7.43 kcal/mol
solvation free energy, 298 K (in CCCCCCC): -7.03 kcal/mol
solvation free energy, 298 K (in CCO): -6.29 kcal/mol
solvation free energy, 298 K (in O=Cc1ccco1): -7.02 kcal/mol
solvation free energy, 298 K (in OCCO): -4.97 kcal/mol
solvation free energy, 298 K (in OCCOCCO): -5.9 kcal/mol
solvation free energy, 298 K (in OCCOCCOCCO): -6.07 kcal/mol

solvation free energy, 298 K (in O): 0.14 kcal/mol
Compound: C=C1C=CC(C(C)C)CCC(C)=CCC1 (stereo unspecified)

solvation free energy, 298 K (in O): -4.06 kcal/mol
Compound: CCCC(O)CC (stereo unspecified)

solvation free energy, 298 K (in CC(C)CC(C)(C)C): -4.24 kcal/mol
solvation free energy, 298 K (in CCCCCCCC): -3.97 kcal/mol
solvation free energy, 298 K (in CN1CCCC1=O): -4.67 kcal/mol
solvation free energy, 298 K (in CO): -4.87 kcal/mol
solvation free energy, 298 K (in NC=O): -3.77 kcal/mol
solvation free energy, 298 K (in O): -3.01 kcal/mol
solvation free energy, 298 K (in O=CN1CCOCC1): -4.49 kcal/mol
solvation free energy, 298 K (in [2H]O[2H]): -2.89 kcal/mol
Compound: CCCCC=O

solvation free energy, 298 K (in O): -0.5 kcal/mol
Compound: C=CC(C)=CCC=C(C)C

Compound: ClC=CCl
solvation free energy, 298 K (in COC(C)=O): -3.98 kcal/mol
solvation free energy, 298 K (in ClCCCl): -3.71 kcal/mol

solvation free energy, 298 K (in O): -9.53 kcal/mol
Compound: Nc1ccc(O)c2c1C(=O)c1ccccc1C2=O

Compound: Brc1cc(Br)cc(Br)c1
solvation free energy, 298 K [1]: -8.73 kcal/mol
solvation free energy, 298 K (in O): -1.91 kcal/mol

solvation free energy, 298 K (in O): -3.9 kcal/mol
Compound: CC(=O)C1CCCCC1

solvation free energy, 298 K (in CCCCCC): -2.12 kcal/mol
solvation free energy, 298 K (in CCCO): -0.96 kcal/mol
Compound: FC(F)(F)C(F)(F)C(F)(F)C(F)(F)C(F)(F)C(F)(F)F

solvation free energy, 298 K (in O): -3.25 kcal/mol
Compound: CC(=O)OC1(C(C)C)CC=C(C)CC1 (stereo unspecified)

Compound: Clc1cc(Cl)c(-c2c(Cl)cccc2Cl)c(Cl)c1
solvation free energy, 298 K (in O): -1.96 kcal/mol

solvation free energy, 298 K (in O): -20.6 kcal/mol
Compound: CCn1ccc(NS(=O)(=O)c2ccc(N)cc2)nc1=O

solvation free energy, 298 K (in C1CCOC1): -13.7 kcal/mol
solvation free energy, 298 K (in CCCCCCCCO): -13.1 kcal/mol
solvation free energy, 298 K (in CCCCCO): -13 kcal/mol
solvation free energy, 298 K (in CCCCO): -13.2 kcal/mol
solvation free energy, 298 K (in CCCO): -13.2 kcal/mol
solvation free energy, 298 K (in CCO): -13.3 kcal/mol
solvation free energy, 298 K (in CCOC(C)=O): -12.8 kcal/mol
solvation free energy, 298 K (in CO): -13.6 kcal/mol
solvation free energy, 298 K (in O): -10.9 kcal/mol
Compound: CCOc1ccc(NC(C)=O)cc1

solvation free energy, 298 K (in O): -6.4 kcal/mol
Compound: COC(CC#N)(OC)OC

Compound: O=C=S
solvation free energy, 298 K (in CC1COC(=O)O1): -1.15 kcal/mol
solvation free energy, 298 K (in CN1CCCC1=O): -1.41 kcal/mol
solvation free energy, 298 K (in COCCOCCOCCOCCOC): -1.41 kcal/mol
solvation free energy, 298 K (in O): 0.41 kcal/mol
